According to patent publication US11161856B2 (H. Lundbeck A/S, priority 2017, dated 2021):

How the values were obtained:
MGLL = target: T1, MGLL (Mus musculus, UniProt O35678); test: In vitro competitive activity-based protein profiling, mouse brain proteome (MGLL); assay type: biochemical; parameters: IC50 MGLL Brain (Mouse, μM): scale not given here; conditions: for % Inh MGLL Brain (Mouse, μM): concentration not given (μM)
T1 construct: Brain; from tissue; host or cells: mouse brain proteome
T1 sequence (O35678 1-303): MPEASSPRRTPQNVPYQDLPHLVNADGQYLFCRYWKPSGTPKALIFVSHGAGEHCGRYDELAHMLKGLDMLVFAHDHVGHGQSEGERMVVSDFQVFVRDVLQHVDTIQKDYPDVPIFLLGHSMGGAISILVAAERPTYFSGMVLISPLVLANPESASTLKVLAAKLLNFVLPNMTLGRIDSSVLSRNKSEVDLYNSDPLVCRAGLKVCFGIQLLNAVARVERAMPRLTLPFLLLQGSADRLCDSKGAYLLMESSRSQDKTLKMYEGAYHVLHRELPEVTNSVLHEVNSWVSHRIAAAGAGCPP

ABHD6 = target: T2, ABHD6 (Mus musculus, UniProt Q8R2Y0); test: In vitro competitive activity-based protein profiling, mouse brain proteome (ABHD6); assay type: biochemical; conditions: mouse brain proteome; concentration not given (μM)
T2 construct: Brain; from tissue; host or cells: mouse brain proteome
T2 sequence (Q8R2Y0 1-336): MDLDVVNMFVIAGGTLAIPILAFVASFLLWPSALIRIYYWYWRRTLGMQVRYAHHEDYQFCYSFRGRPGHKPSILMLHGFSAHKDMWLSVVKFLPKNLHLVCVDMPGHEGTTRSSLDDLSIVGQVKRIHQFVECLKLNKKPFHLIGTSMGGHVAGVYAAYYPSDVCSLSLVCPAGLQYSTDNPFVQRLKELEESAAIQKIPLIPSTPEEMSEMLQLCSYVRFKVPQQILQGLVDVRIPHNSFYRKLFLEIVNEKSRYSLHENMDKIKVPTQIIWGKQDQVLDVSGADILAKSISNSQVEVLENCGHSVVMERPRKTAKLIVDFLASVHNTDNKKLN
Method: [The source words this procedure for another target and reports this target under the same test.] In Vitro Competitive Activity-Based Protein Profiling.
Proteomes (human prefrontal cortex or cell membrane fractions) (50 μL, 1.0 mg/mL total protein concentration) were preincubated with varying concentrations of inhibitors at 37° C. After 30 min, FP-Rh or HT-01 (1.0 μL, 50 μM in DMSO) was added and the mixture was incubated for another 30 min at room temperature. Reactions were quenched with SDS loading buffer (15 μL-4×) and run on SDS-PAGE.

CS(=O)(=O)N1CCC2(CCN(c3cccc(Cl)c3CN3CC4(CCN(C(=O)OC(C(F)(F)F)C(F)(F)F)CC4)C3)CC2)C1 [Example 61, 1,1,1,3,3,3-Hexafluoropropan-2-yl 2-(2-chloro-6-(2-(methylsulfonyl)-2,8-diazaspiro[4.5]decan-8-yl)benzyl)-2,7-diazaspiro[3.5]nonane-7-carboxylate]
% Inh MGLL Brain (Mouse, μM) (MGLL): ### (### is ≥75%) | % Inh ABHD6 Brain (Mouse, μM) (ABHD6): ### (### is ≥75%)

O=C(OC(C(F)(F)F)C(F)(F)F)N1CCC2(CC1)CN(Cc1ccc(CN3CCOCC3)cc1)C2 [Example 73, 1,1,1,3,3,3-Hexafluoropropan-2-yl 2-(4-(morpholinomethyl)benzyl)-2,7-diazaspiro[3.5]nonane-7-carboxylate]
% Inh MGLL Brain (Mouse, μM) (MGLL): ### (### is ≥75%) | % Inh ABHD6 Brain (Mouse, μM) (ABHD6): ### (### is ≥75%)

Cc1cc(N2CCOCC2)ccc1CN1CCC2(CC1)CN(C(=O)OC(C(F)(F)F)C(F)(F)F)C2 [Example 71, 1,1,1,3,3,3-Hexafluoropropan-2-yl 7-(2-methyl-4-morpholinobenzyl)-2,7-diazaspiro[3.5]nonane-2-carboxylate]
% Inh MGLL Brain (Mouse, μM) (MGLL): ### (### is ≥75%) | % Inh ABHD6 Brain (Mouse, μM) (ABHD6): ### (### is ≥75%)

CCN1CC2(CCN(c3cc(Cl)ccc3CN3CCN(C(=O)OC(C(F)(F)F)C(F)(F)F)CC3)C2)C1 [Example 173, 1,1,1,3,3,3-Hexafluoropropan-2-yl 4-(4-chloro-2-(2-ethyl-2,6-diazaspiro[3.4]octan-6-yl)benzyl)piperazine-1-carboxylate]
% Inh MGLL Brain (Mouse, μM) (MGLL): ### (### is ≥75%) | % Inh ABHD6 Brain (Mouse, μM) (ABHD6): # (# is ≤25%)

Cc1cc(-c2ccccc2)ccc1CN1CC2(CCN(C(=O)OC(C(F)(F)F)C(F)(F)F)CC2)C1 [Example 68, 1,1,1,3,3,3-Hexafluoropropan-2-yl 2-((3-methyl-[1,1'-biphenyl]-4-yl)methyl)-2,7-diazaspiro[3,5]nonane-7-carboxylate]
% Inh MGLL Brain (Mouse, μM) (MGLL): ### (### is ≥75%) | % Inh ABHD6 Brain (Mouse, μM) (ABHD6): ### (### is ≥75%)

O=C(OC(C(F)(F)F)C(F)(F)F)N1CCC2(CC1)CN(Cc1c(Cl)cccc1N1CCN(C3CC3)CC1)C2 [Example 58, 1,1,1,3,3,3-Hexafluoropropan-2-yl 2-(2-chloro-6-(4-cyclopropvlpiperazin-1-yl)benzyl)-2,7-diazaspiro[3.5]nonane-7-carboxylate]
% Inh MGLL Brain (Mouse, μM) (MGLL): ### (### is ≥75%) | % Inh ABHD6 Brain (Mouse, μM) (ABHD6): ### (### is ≥75%)

O=C(OC(C(F)(F)F)C(F)(F)F)N1CCC2(CCN(Cc3ccc(Cl)cc3N3CCC(F)CC3)CC2)C1 [Example 28, 1,1,1,3,3,3-Hexafluoropropan-2-yl 8-(4-chloro-2-(4-fluoropiperidin-1-yl)benzyl)-2,8-diazaspiro[4.5]decane-2-carboxylate]
IC50 MGLL Brain (Mouse, μM) (MGLL): * * * | % Inh MGLL Brain (Mouse, μM) (MGLL): ### (### is ≥75%) | % Inh ABHD6 Brain (Mouse, μM) (ABHD6): # (# is ≤25%)

CC(=O)N1CCCC12CCN(c1cc(Cl)ccc1CN1CCN(C(=O)OC(C(F)(F)F)C(F)(F)F)CC1)CC2 [Example 204, 1,1,1,3,3,3-Hexafluoropropan-2-yl 4-(2-(1-acetyl-1,8-diazaspiro[4.5]decan-8-yl)-4-chlorobenzyl)piperazine-l-carboxylate]
% Inh MGLL Brain (Mouse, μM) (MGLL): ### (### is ≥75%) | % Inh ABHD6 Brain (Mouse, μM) (ABHD6): # (# is ≤25%)

O=C(OC(C(F)(F)F)C(F)(F)F)N1CCC2(CC1)CN(Cc1c(Cl)cccc1N1CC3COCC3C1)C2 (stereo not drawn) [Example 57, 1,1,1,3,3,3-Hexafluoropropan-2-yl 2-(2-chloro-6-(tetrahydro-1H-furo[3,4-c]pyrrol-5(3H)-yl)benzyl)-2,7-diazaspiro[3.5]nonane-7-carboxylate]
% Inh MGLL Brain (Mouse, μM) (MGLL): ### (### is ≥75%) | % Inh ABHD6 Brain (Mouse, μM) (ABHD6): ### (### is ≥75%)

O=C(OC(C(F)(F)F)C(F)(F)F)N1CC2(CCN(Cc3cccc(Oc4ccccc4)c3)CC2)C1 [Example 64, 1,1,1,3,3,3-Hexafluoropropan-2-yl 7-(3-phenoxybenzyl)-2,7-diazaspiro[3,5]nonane-2-carboxylate]
% Inh MGLL Brain (Mouse, μM) (MGLL): ## (## is between 25 and 75%) | % Inh ABHD6 Brain (Mouse, μM) (ABHD6): ### (### is ≥75%)

O=C(OC(C(F)(F)F)C(F)(F)F)N1CCC2(CC1)CN(Cc1ccc(C(F)(F)F)cc1N1CCCCC1)C2 [Example 35]
% Inh MGLL Brain (Mouse, μM) (MGLL): ### (### is ≥75%) | % Inh ABHD6 Brain (Mouse, μM) (ABHD6): ## (## is between 25 and 75%)

O=C(OC(C(F)(F)F)C(F)(F)F)N1CCC2(CCN(Cc3cccc(Cl)c3N3CCCC3)CC2)C1 [Example 171, 1,1,1,3,3,3-Hexafluoropropan-2-yl 8-(3-chloro-2-(pyrrolidin-1-yl)benzyl)-2,8-diazaspiro[4.5]decane-2-carboxylate]
% Inh MGLL Brain (Mouse, μM) (MGLL): ### (### is ≥75%) | % Inh ABHD6 Brain (Mouse, μM) (ABHD6): # (# is ≤25%)

CS(=O)(=O)N1CCC2(CCN(c3cc(Cl)cc(CN4CCCC45CN(C(=O)OC(C(F)(F)F)C(F)(F)F)C5)c3)CC2)C1 [Example 232]
inhibition at 10 µM (MGLL; at 10 uM, read-out: % Inh MGLL Brain (Mouse)): 25 to 75% | % Inh ABHD6 Brain (Mouse, μM) (ABHD6): ### (### is ≥75%)

O=C(OC(C(F)(F)F)C(F)(F)F)N1CCC2(CCN(Cc3ccc(C(F)(F)F)cc3N3CCC(F)CC3)CC2)C1 [Example 192, 1,1,1,3,3,3-Hexafluoropropan-2-yl 8-(2-(4-fluoropiperidin-1-yl)-4-(trifluoromethyl)benzyl)-2,8-diazaspiro[4.5]decane-2-carboxylate]
% Inh MGLL Brain (Mouse, μM) (MGLL): ### (### is ≥75%) | % Inh ABHD6 Brain (Mouse, μM) (ABHD6): # (# is ≤25%)

CCN1CCC2(CCN(c3cc(C(F)(F)F)ccc3CN3CCN(C(=O)OC(C(F)(F)F)C(F)(F)F)CC3)CC2)C1 [Example 183, 1,1,1,3,3,3-Hexafluoropropan-2-yl 4-(2-(2-ethyl-2,8-diazaspiro[4.5]decan-8-yl)-4-(trifluoromethyl)benzyl) piperazine-1-carboxylate]
% Inh MGLL Brain (Mouse, μM) (MGLL): ### (### is ≥75%) | % Inh ABHD6 Brain (Mouse, μM) (ABHD6): # (# is ≤25%)

O=C(OC(C(F)(F)F)C(F)(F)F)N1CCC2(CC1)CN(Cc1ccccc1C(F)(F)F)C2 [Example 95, 1,1,1,3,3,3-Hexafluoropropan-2-yl 2-(2-(trifluoromethyl)benzyl)-2,7-diazaspiro[3.5]nonane-7-carboxylate]
% Inh MGLL Brain (Mouse, μM) (MGLL): ### (### is ≥75%) | % Inh ABHD6 Brain (Mouse, μM) (ABHD6): ### (### is ≥75%)

CN1CCC2(CCN(c3cc(Cl)ccc3CN3CCN(C(=O)OC(C(F)(F)F)C(F)(F)F)CC3)CC2)C1 [Example 177, 1,1,1,3,3,3-Hexafluoropropan-2-yl 4-(4-chloro-2-(2-methyl-2,8-diazaspiro[4.5]decan-8-yl)benzyl)piperazine-1-carboxylate]
% Inh MGLL Brain (Mouse, μM) (MGLL): ### (### is ≥75%) | % Inh ABHD6 Brain (Mouse, μM) (ABHD6): # (# is ≤25%)

CS(=O)(=O)N1CC2(CCN(c3cc(Cl)cc(CN4CCCC45CN(C(=O)OC(C(F)(F)F)C(F)(F)F)C5)c3)CC2)C1 [Example 240, 1,1,1,3,3,3-Hexafluoropropan-2-yl 5-(3-chloro-5-(2-(methylsulfonyl)-2,7-diazaspiro[3.5]nonan-7-yl)benzyl)-2,5-diazaspiro[3.4]octane-2-carboxylate]
% Inh MGLL Brain (Mouse, μM) (MGLL): ### (### is ≥75%) | % Inh ABHD6 Brain (Mouse, μM) (ABHD6): ### (### is ≥75%)

CS(=O)(=O)N1CCC2(CCN(c3cc(C(F)(F)F)ccc3CN3CCN(C(=O)OC(C(F)(F)F)C(F)(F)F)CC3)C2)CC1 [Example 196, 1,1,1,3,3,3-Hexafluoropropan-2-yl 4-(2-(8-(methylsulfonyl)-2,8-diazaspiro[4.5]decan-2-yl)-4-(trifluoromcthyl)benzyl)pipera zinc-1-carboxylate]
% Inh MGLL Brain (Mouse, μM) (MGLL): ### (### is ≥75%) | % Inh ABHD6 Brain (Mouse, μM) (ABHD6): # (# is ≤25%)
